Data from the NIST ThermoML archive (doi:10.1016/j.fluid.2016.11.010).

Key:
[1] = for vapor or sublimation pressure: Liquid, Transpiration method
[2] = Molar enthalpy of transition or fusion; conditions: Crystal; DSC

Cc1ccccc1-n1ccnc1 [1-(o-tolyl)-1H-imidazole]
[1]
Conditions	vapor or sublimation pressure [kPa]
313.3 K	0.00112
318.2 K	0.00165
323.2 K	0.00266
328.2 K	0.00389
333.2 K	0.00587
338.1 K	0.00828
343.1 K	0.01155
348.1 K	0.01711
353.1 K	0.02295
358 K	0.03338
363 K	0.04638

c1ccc(-n2ccnc2)cc1 [1-phenylimidazole]
[1]
Conditions	vapor or sublimation pressure [kPa]
298.7 K	0.00041
308.6 K	0.00105
313.5 K	0.00158
318.4 K	0.00254
319.1 K	0.00269
323.5 K	0.00393
328.5 K	0.00594
333.7 K	0.00902
338.4 K	0.01334
343.2 K	0.01799
348.2 K	0.02552
353.1 K	0.03567

Brc1ccccc1-n1ccnc1 [2-bromo-phenyl-1H-imidazole]
[1]
Conditions	vapor or sublimation pressure [kPa]
343.2 K	0.00369
348.2 K	0.00534
353.2 K	0.00754
358.1 K	0.01128
363.1 K	0.01573
368 K	0.0218
374 K	0.03122

Fc1ccccc1-n1ccnc1 [2-fluoro-phenyl-1H-imidazole]
[1]
Conditions	vapor or sublimation pressure [kPa]
323.2 K	0.0041
328.2 K	0.00615
333.2 K	0.00892
338.1 K	0.01364
343.1 K	0.01948
348.1 K	0.02761
353.1 K	0.03781
358.1 K	0.05311
363 K	0.0745
367.9 K	0.09597

COc1ccccc1-n1ccnc1 [2-methoxy-phenyl-1H-imidazole]
[1]
Conditions	vapor or sublimation pressure [kPa]
333.2 K	0.00084
338.3 K	0.00128
343.1 K	0.00192
348.1 K	0.00293
353 K	0.00409
358 K	0.00591
362.9 K	0.00864
367.9 K	0.01198
374.2 K	0.01855

Brc1ccc(-n2ccnc2)cc1 [4-bromo-phenyl-1H-imidazole]
Conditions	Molar enthalpy of transition or fusion [kcal/mol]
[2]	6.84

[1]
Conditions	vapor or sublimation pressure [kPa]
343.3 K	0.00037
348.1 K	0.00065
353 K	0.00103
358.2 K	0.00174
363.2 K	0.00273
368.2 K	0.00467
374.1 K	0.00773

Conditions	Normal melting temperature [°C]
[1], Crystal, DTA	120.1

Fc1ccc(-n2ccnc2)cc1 [4-fluoro-phenyl-1H-imidazole]
[1]
Conditions	vapor or sublimation pressure [kPa]
313 K	0.00108
318.4 K	0.00166
323.3 K	0.00268
328.2 K	0.00401
333.2 K	0.00563
335.7 K	0.00702
338.2 K	0.00834
340.7 K	0.01004
343.2 K	0.01191
345.6 K	0.01481
348.2 K	0.01727
353.1 K	0.02449
358.2 K	0.03573
363.2 K	0.04969
368.1 K	0.06685
373.1 K	0.09256

COc1ccc(-n2ccnc2)cc1 [4-methoxy-phenyl-1H-imidazole]
[1]
Conditions	vapor or sublimation pressure [kPa]
333.4 K	0.00061
338.2 K	0.00094
343.3 K	0.00147
348.2 K	0.00215
353.3 K	0.00328
358.3 K	0.00469
363.3 K	0.00695
368.2 K	0.00969
373.2 K	0.01433

Cc1ccc(-n2ccnc2)cc1 [4-methyl-phenyl-1H-imidazole]
[1]
Conditions	vapor or sublimation pressure [kPa]
328.3 K	0.00266
333 K	0.00399
338.1 K	0.00603
340.8 K	0.00739
345.7 K	0.01103
350.7 K	0.01582
355.7 K	0.02204
360.7 K	0.0313
365.6 K	0.04264
370.6 K	0.0608
375.3 K	0.07866
